Test results taken from patent publication US20060183759A1, “Tissue transglutaminase inhibitors” (priority 2004, published 2006).
Where a name gives a salt, the structure may show the parent alone. Read-outs that look alike come from different tables or passages of the source.

What was measured:
[1] = target: T1, transglutaminase 2 (TGase 2) (Homo sapiens, UniProt P21980); test: TGase 2 transpeptidase fluorescence assay: incorporation of KXD into N,N-dimethylated-casein (Std and FPC formats); format: biochemical; conditions: for TGase 2 inhibitory activity, SAR comment in words (relative to parent compound): qualitative comparison
T1 sequence (P21980 1-687): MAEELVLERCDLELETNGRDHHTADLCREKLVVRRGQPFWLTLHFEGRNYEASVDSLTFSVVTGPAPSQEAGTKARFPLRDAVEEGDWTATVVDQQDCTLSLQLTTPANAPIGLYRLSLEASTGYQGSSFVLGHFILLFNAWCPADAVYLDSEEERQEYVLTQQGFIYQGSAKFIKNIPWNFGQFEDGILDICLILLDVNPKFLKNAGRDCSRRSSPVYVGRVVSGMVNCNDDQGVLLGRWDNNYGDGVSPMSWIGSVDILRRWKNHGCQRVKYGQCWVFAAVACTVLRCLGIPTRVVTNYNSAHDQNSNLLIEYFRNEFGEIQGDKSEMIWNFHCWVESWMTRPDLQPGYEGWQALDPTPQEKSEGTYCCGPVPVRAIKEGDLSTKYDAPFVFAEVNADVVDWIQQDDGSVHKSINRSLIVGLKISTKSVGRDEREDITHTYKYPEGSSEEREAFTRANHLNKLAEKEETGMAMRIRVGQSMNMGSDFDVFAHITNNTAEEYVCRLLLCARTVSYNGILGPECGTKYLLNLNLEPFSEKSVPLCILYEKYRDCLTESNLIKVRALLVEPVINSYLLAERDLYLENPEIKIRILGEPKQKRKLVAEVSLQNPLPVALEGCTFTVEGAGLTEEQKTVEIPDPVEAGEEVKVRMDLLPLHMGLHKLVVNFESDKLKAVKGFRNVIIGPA
Procedure: Transpeptidase activity was monitored as the increase in fluorescence intensity (FI) that accompanies incorporation of the dansylated Lys derivative, α-N-Boc-Lys-CH2-CH2-dansyl (KXD), into the protein substrate, N,N-dimethylated-casein (NMC).
Therefore, a method was used in which full progress curves (FPC) were recorded for the TGase-catalyzed reaction of KXD with NMC in the presence of inhibitor (Table 1-4). Reactions were initiated by enzyme addition to a solution of substrate and inhibitor. […] From such progress curves, IC50 values were calculated using the following equation: IC50=[I]/{(vc/vss)−1}. Progress curves recorded at several inhibitor concentrations were used to determine FPC IC50 values (Table 1-4).

[2] = target: T1, transglutaminase 2 (TGase 2); test: as above; format: biochemical; conditions: standard format (Std): reactions terminated after 60 min, FI recorded, four-parameter fit
[3] = full progress curves (FPC), IC50=[I]/{(vc/vss)−1}, from steady-state velocity, read-out: IC50 (μM, FPC)
[4] = summary of FPC values, read-out: FPC IC50 values

NNC(=O)CSc1nc2scc(-c3ccccc3)c2c(=O)n1-c1ccccc1 [986-01, (4-Oxo-3,5-diphenyl-3,4-dihydro-thieno[2,3-d]pyrimidin-2-ylsulfanyl)acetic acid hydrazide]
IC50 [1, 3]: 0.25 µM | IC50 [2]: 0.8 µM

NNC(=O)CSc1nc2ccccc2c(=O)n1-c1ccccc1 [986-03, (4-Oxo-3-phenyl-3,4-dihydroquinazolin-2-ylsulfanyl)acetic acid hydrazide]
TGase 2 inhibitory activity, SAR comment in words (relative to parent compound) [1]: decreased activity | IC50 [2]: 18 µM

NNC(=O)CSc1nc2scc(-c3ccccc3)c2c(=O)n1-c1ccc(F)cc1 [986-07, [3-(4-Fluorophenyl)-4-oxo-5-phenyl-3,4-dihydrothieno[2,3-d]pyrimidin-2-ylsulfanyl]acetic acid hydrazide]
IC50 [1, 3]: 0.32 µM | IC50 [2]: 1.3 µM

NNC(=O)CSc1nc2scc(-c3ccc(F)cc3)c2c(=O)n1-c1ccccc1 [986-08, [5-(4-Fluorophenyl)-4-oxo-3-phenyl-3,4-dihydrothieno[2,3-d]pyrimidin-2-ylsulfanyl]acetic acid hydrazide]
IC50 [1, 3]: 0.29 µM | IC50 [2]: 0.8 µM

NNC(=O)CSc1nc2scc(-c3ccc(F)cc3)c2c(=O)n1-c1ccc(F)cc1 [986-09, [3,5-Bis-(4-fluorophenyl)-4-oxo-3,4-dihydrothieno[2,3-d]pyrimidin-2-ylsulfanyl]acetic acid hydrazide]
IC50 [1, 3]: 0.67 µM | IC50 [2]: 1.5 µM

Cc1sc2nc(SCC(=O)NN)n(-c3ccccc3)c(=O)c2c1-c1ccccc1 [986-13, (6-Methyl-4-oxo-3,5-diphenyl-3,4-dihydrothieno[2,3-d]pyrimidin-2-ylsulfanyl)acetic acid hydrazide]
IC50 [1, 3]: 0.16 µM | TGase 2 inhibitory activity, SAR comment in words (relative to parent compound) [1]: increased activity | IC50 [1, 4]: < 0.16 µM | IC50 [2]: 1.5 µM

NNC(=O)CSc1nc2scc(-c3ccccc3)c2c(=O)n1-c1ccccc1F [986-18, [3-(2-Fluorophenyl)-4-oxo-5-phenyl-3,4-dihydrothieno[2,3-d]pyrimidin-2-ylsulfanyl]acetic acid hydrazide]
IC50 [1, 3]: 0.16 µM | IC50 [2]: 0.5 µM

NNC(=O)CSc1nc2scc(-c3ccccc3)c2c(=O)n1-c1cccc(F)c1 [986-19, [3-(3-Fluorophenyl)-4-oxo-5-phenyl-3,4-dihydrothieno[2,3-d]pyrimidin-2-ylsulfanyl]acetic acid hydrazide]
IC50 [1, 3]: 0.18 µM | IC50 [1, 4]: < 0.16 µM | IC50 [2]: 0.25 µM

COc1cccc(-n2c(SCC(=O)NN)nc3scc(-c4ccccc4)c3c2=O)c1 [986-21, [3-(3-Methoxyphenyl)-4-oxo-5-phenyl-3,4-dihydrothieno[2,3-d]pyrimidin-2-ylsulfanyl]acetic acid hydrazide]
IC50 [1, 3]: 0.47 µM | IC50 [2]: 0.82 µM

Cc1sc2nc(SCCC(=O)NN)n(-c3ccccc3)c(=O)c2c1-c1ccccc1 [986-22, 3-(6-Methyl-4-oxo-3,5-diphenyl-3,4-dihydrothieno[2,3-d]pyrimidin-2-ylsulfanyl)propionic acid hydrazide]
TGase 2 inhibitory activity, SAR comment in words (relative to parent compound) [1]: diminished activity | IC50 [2]: 1.3 µM

NNC(=O)CSc1nc2scc(-c3ccccc3)c2c(=O)n1-c1cc(F)ccc1F [986-26, [3-(2,5-Difluorophenyl)-4-oxo-5-phenyl-3,4-dihydrothieno[2,3-d]pyrimidin-2-ylsulfanyl]acetic acid hydrazide]
IC50 [1, 3]: 0.23 µM | IC50 [2]: 0.59 µM

NNC(=O)CSc1nc2scc(-c3ccccc3)c2c(=O)n1-c1cc(F)cc(F)c1 [986-27, [3-(3,5-Difluorophenyl)-4-oxo-5-phenyl-3,4-dihydrothieno[2,3-d]pyrimidin-2-ylsulfanyl]acetic acid hydrazide]
IC50 [1, 3]: 0.22 µM | IC50 [2]: 0.48 µM

NNC(=O)CSc1nc2sc(-c3ccccc3)cc2c(=O)n1-c1ccccc1 [986-29, (4-Oxo-3,6-diphenyl-3,4-dihydrothieno[2,3-d]pyrimidin-2-ylsulfanyl)acetic acid hydrazide]
TGase 2 inhibitory activity, SAR comment in words (relative to parent compound) [1]: loss of inhibitory activity | IC50 [2]: > 20 µM

NNC(=O)COc1nc2scc(-c3ccccc3)c2c(=O)n1-c1ccccc1 [986-30, (4-Oxo-3,5-diphenyl-3,4-dihydrothieno[2,3-d]pyrimidin-2-yloxy)acetic acid hydrazide]
TGase 2 inhibitory activity, SAR comment in words (relative to parent compound) [1]: decreased activity | IC50 [2]: 4.5 µM

COc1cccc(-c2csc3nc(SCC(=O)NN)n(-c4cccc(F)c4)c(=O)c23)c1 [986-32, [3-(3-Fluorophenyl)-5-(3-methoxyphenyl)-4-oxo-3,4-dihydrothieno[2,3-d]pyrimidin-2-ylsulfanyl]acetic acid hydrazide]
IC50 [1, 3]: 0.14 µM | IC50 [1, 4]: < 0.16 µM | IC50 [2]: 0.21 µM

CCN(CC)CCCOc1ccccc1-c1csc2nc(SCC(=O)NN)n(-c3cccc(F)c3)c(=O)c12 [986-35, [5-[2-(3-Diethylaminopropoxy)phenyl]-3-(3-fluorophenyl)-4-oxo-3,4-dihydrothieno[2,3-d]pyrimidin-2-ylsulfanyl]acetic acid hydrazide]
TGase 2 inhibitory activity, SAR comment in words (relative to parent compound) [1]: decreased inhibitory activity | IC50 [2]: 4.8 µM

NNC(=O)CSc1nc2sc3c(c2c(=O)n1-c1cccc(F)c1)C(c1ccccc1)CCC3 (stereo not shown) [986-44, [3-(3-Fluorophenyl)-4-oxo-5-phenyl-3,4,5,6,7,8-hexahydrobenzo[4,5]thieno[2,3-d]pyrimidin-2-ylsulfanyl]acetic acid hydrazide]
IC50 [1, 3]: 0.17 µM | IC50 [2]: 0.93 µM

CN(N)C(=O)CSc1nc2scc(-c3ccc(F)cc3)c2c(=O)n1-c1ccc(F)cc1 [986-50, [3,5-Bis-(4-fluorophenyl)-4-oxo-3,4-dihydrothieno[2,3-d]pyrimidin-2-ylsulfanyl]acetic acid N-methylhydrazide]
IC50 [2]: > 20 µM

CNNC(=O)CSc1nc2scc(-c3ccc(F)cc3)c2c(=O)n1-c1ccc(F)cc1 [986-51, [3,5-Bis-(4-fluorophenyl)-4-oxo-3,4-dihydrothieno[2,3-d]pyrimidin-2-ylsulfanyl]acetic acid N′-methylhydrazide]
IC50 [2]: > 20 µM

CNC(=O)CSc1nc2scc(-c3ccc(F)cc3)c2c(=O)n1-c1ccc(F)cc1 [986-52, 2-[3,5-Bis-(4-fluorophenyl)-4-oxo-3,4-dihydrothieno[2,3-d]pyrimidin-2-ylsulfanyl]-N-methylacetamide]
IC50 [2]: > 20 µM

NC(=O)CSc1nc2scc(-c3ccccc3F)c2c(=O)n1-c1cccc(F)c1 [986-53, 2-[3-(3-Fluorophenyl)-5-(2-fluorophenyl)-4-oxo-3,4-dihydrothieno[2,3-d]pyrimidin-2-ylsulfanyl]acetamide]
IC50 [2]: > 10 µM

O=C(O)CSc1nc2scc(-c3ccc(F)cc3)c2c(=O)n1-c1ccc(F)cc1 [986-54, [3,5-Bis-(4-fluorophenyl)-4-oxo-3,4-dihydrothieno[2,3-d]pyrimidin-2-ylsulfanyl]acetic acid]
IC50 [2]: > 20 µM

O=C(CSc1nc2scc(-c3ccc(F)cc3)c2c(=O)n1-c1ccc(F)cc1)NO [986-55, 2-[3,5-Bis-(4-fluorophenyl)-4-oxo-3,4-dihydrothieno[2,3-d]pyrimidin-2-ylsulfanyl]-N-hydroxyacetamide]
IC50 [2]: > 20 µM

NCC(=O)CSc1nc2scc(-c3ccccc3)c2c(=O)n1-c1cccc(F)c1 [986-56, 2-(3-Amino-2-oxo-propylsulfanyl)-3-(3-fluorophenyl)-5-phenyl-3H-thieno[2,3-d]pyrimidin-4-one hydrochloride]
IC50 [2]: 5.3 µM

CCOC(=O)CSc1nc2scc(-c3ccccc3)c2c(=O)n1-c1ccc(F)cc1 [986-58, [3-(4-Fluorophenyl)-4-oxo-5-phenyl-3,4-dihydrothieno[2,3-d]pyrimidin-2-ylsulfanyl]acetic acid ethyl ester]
IC50 [2]: > 20 µM
